Source: US5593970A, “Heterocyclic anthracycline analogs” (priority 1994, dated 1997)
Structures can show the parent of a compound that is named as a salt. Where two headings read alike, the source gives them in different places.

Key:
Experiment in all cases: Microculture tetrazolium assay
Assay type in all cases: cell-based
SKOV3 = conditions: Homo sapiens, SK-OV-3, SKOV3
LOX = test system: LOX
HT29 = conditions: Homo sapiens, HT-29, HT29
T47D = conditions: Homo sapiens
SKVLB = conditions: for VLB/OV3: IC50 ratio SKVLB/SKOV3; for IC50: SKVLB

Row | Compound | IC50 (SKOV3; read-out: IC50) | IC50 (LOX; read-out: IC50) | IC50 (HT29; read-out: IC50) | IC50 (T47D; read-out: IC50) | IC50 (SKVLB; read-out: IC50) | VLB/OV3 (SKVLB) | IC50 (SKOV3) | IC50 (SKVLB) | IC50 (LOX) | IC50 (HT29) | IC50 (T47D)
1 | C[C@@H]1O[C@@H](O[C@H]2O[C@H](C#N)CC3=C2C(=O)c2cc4ccccc4c(O)c2C3=O)C[C@H](NC(=O)C(F)(F)F)[C@@H]1O [BCH-2007, (1'S,1R,3S)-3-(6-hydroxy-1-(2',3',6'-trideoxy-3'-trifluoroacetamido-4'-hydroxy-L-lyxohexopyranose)-5,12-dioxo-3,4,5,12-tetrahydroanthraceno-[2,3-c]pyran-3-yl)nitrile] | 433 nM | 379 nM | 148 nM | 506 nM | 2790 nM | 6.44 |  |  |  |  | 
2 | C[C@@H]1O[C@@H](O[C@@H]2O[C@@H](C#N)CC3=C2C(=O)c2cc4ccccc4c(O)c2C3=O)C[C@H](NC(=O)C(F)(F)F)[C@@H]1O [BCH-2008, (1'S,1S,3R)-3-(6-hydroxy-1-(2',3',6'-trideoxy-3'-trifluoroacetamido-4'-hydroxy-L-lyxohexopyranose)-5,12-dioxo-3,4,5,12-tetrahydroanthraceno-[2,3-c]pyran-3-yl)nitrile] | 332 nM | 154 nM | 62.5 nM | 387 nM | 2180 nM | 6.57 |  |  |  |  | 
3 | C[C@@H]1O[C@@H](O[C@H]2O[C@H](c3ccccc3)CC3=C2C(=O)c2cc4ccccc4c(O)c2C3=O)C[C@H](NC(=O)C(F)(F)F)[C@@H]1O [BCH-2010, (1S, 1R, 3S)-3-(6-hydroxy-1-(2',3',6'-trideoxy-3'-trifluoroacetamido-4'-hydroxy-L-lyxohexopyranose)-5,12-dioxo-3,4,5,12-tetrahydroanthraceno-[2,3-c]pyran-3-yl)benzene] | 12700 nM | 9250 nM | 10700 nM | 13500 nM | 28500 nM | 2.24 |  |  |  |  | 
4 | C[C@@H]1O[C@@H](O[C@H]2O[C@H](S(=O)(=O)c3ccccc3)CC3=C2C(=O)c2cc4ccccc4c(O)c2C3=O)C[C@H](NC(=O)C(F)(F)F)[C@@H]1O [BCH-2025] |  | 1110 nM | 644 nM | 3340 nM | 6200 nM | 3.15 | 1970 nM |  |  |  | 
5 | CC(=O)C1CC2=C(C(=O)c3cc4ccccc4c(O)c3C2=O)C(OC[C@@H](O)CO)O1 (stereo partly shown) [BCH-2034] | 2950 nM | 1430 nM | 2050 nM | 7870 nM |  | 2.54 |  | 7490 nM |  |  | 
6 | CC(=O)[C@H]1CC2=C(C(=O)c3cc4ccccc4c(O)c3C2=O)[C@H](O[C@H]2O[C@H](CO)[C@@H](O)[C@H](O)[C@H]2NC(=O)N(CCCl)N=O)O1 [BCH-2039] |  |  |  |  |  | 6.01 | 13500 nM | 81200 nM | 1550 nM | 4430 nM | 12600 nM
7 | CC(=O)[C@H]1CC2=C(C(=O)c3cc4ccccc4c(O)c3C2=O)[C@H](O[C@@H]2O[C@@H](C)[C@@H](O)[C@@H](NC(=O)C(F)(F)F)C2I)O1 (stereo partly shown) [BCH-2064] | 1450 nM | 10800 nM | 440 nM | 878 nM | 3450 nM | 2.38 |  |  |  |  | 
8 | CC(=O)[C@@H]1CC2=C(C(=O)c3cc4ccccc4c(O)c3C2=O)[C@@H](O[C@H]2O[C@H](CO)[C@@H](O)[C@H](O)[C@H]2NC(=O)N(CCCl)N=O)O1 [BCH-2073, (1'R, 1R,3S)-3-Aceto-6-hydroxy-1-(2-deoxy-2-chloroethylnitrosoureido-D-glucopyranose)-5,12-dioxo-3,4,5,12-tetrahydro-1H-anthra[2,3-C]pyran] |  |  |  |  |  | 2.67 | 5140 nM | 13700 nM | 807 nM | 6590 nM | 6120 nM

Second part, led by results:

Row | IC50 (SKOV3; read-out: IC50) | IC50 (LOX; read-out: IC50) | IC50 (HT29; read-out: IC50) | IC50 (T47D; read-out: IC50) | IC50 (SKVLB; read-out: IC50) | Compound | VLB/OV3 (SKVLB) | IC50 (SKOV3) | IC50 (SKVLB) | IC50 (LOX) | IC50 (HT29) | IC50 (T47D)
9 | 2060 nM | 736 nM | 565 nM | 954 nM | 4030 nM | C[C@@H]1O[C@@H](O[C@H]2O[C@H](c3ccccc3)CC3=C2C(=O)c2cc4ccccc4c(O)c2C3=O)C[C@H](N)[C@@H]1O [BCH-2012, (1'S,1R,3S)-3-(6-hydroxy-1-(2',3',6'-trideoxy-3'-amino-4'-hydroxy-L-lyxohexopyranose)-5,12-dioxo-3,4,5,12-tetrahydroanthraceno-[2,3-c]pyran-3-yl)benzene hydrochloride] | 1.96 |  |  |  |  | 
10 | 93.4 nM | 59.7 nM | 130 nM | 345 nM | 670 nM | CC[C@@H]1Cc2c(O)c3c(c(O)c2[C@@H](O[C@H]2C[C@H](N)[C@H](O)[C@H](C)O2)O1)C(=O)c1ccccc1C3=O [BCH-2016, (1'S,1R, 3R)-3-ethyl-5,12-dihydroxy-1-(2',3',6'-trideoxy-3'-amino-L-lyxohexopyranose)-1,2,3,4-tetrahydro-(2-oxygen)-naphthacene-6,11-dione-hydrochloride] | 7.17 |  |  |  |  | 
11 | 275 nM | 102 nM | 77.3 nM | 263 nM | 472 nM | CC(C)[C@H]1Cc2c(O)c3c(c(O)c2[C@H](O[C@H]2C[C@H](N)[C@H](O)[C@H](C)O2)O1)C(=O)c1ccccc1C3=O [BCH-2049, (1'S,1S,3R)-5,12-trihydroxy-3-isopropyl-1-(2',3',6'-trideoxy-3'-amino-L-lyxohexopyranose)-1,2,3,4-tetrahydro-(2-oxygen)-naphthacene-6,11-dione-hydrochloride] | 1.72 |  |  |  |  | 
12 | 70.6 nM | 38.4 nM | 304 nM | 412 nM | 67.2 nM | CC(C)[C@@H]1Cc2c(O)c3c(c(O)c2[C@@H](O[C@H]2C[C@H](N)[C@H](O)[C@H](C)O2)O1)C(=O)c1ccccc1C3=O [BCH-2050, (1'S,1R,3S)-5,12-Dixydroxy-3-isopropy-1-(2',3',6'-trideoxy-3'-amino 'L-lyxohexopyranose)-1,2,3,4-tetrahydro-(2-oxygen)-naphtacene-6,11-dione-hydrochloride] | 0.95 |  |  |  |  | 
13 | 1030 nM | 1490 nM | 2690 nM | 243 nM | 5160 nM | C[C@@H]1O[C@@H](O[C@@H]2O[C@@H](COc3ccccc3)CC3=C2C(=O)c2cc4ccccc4c(O)c2C3=O)C[C@H](NC(=O)C(F)(F)F)[C@@H]1O [BCH-2057, (1'S,1S,3R)-5,12-dioxo-6-hydroxy-3-phenyloxymethyl-1-(2',3',6'-trideoxy-3'-trifluoroacetamido-L-lyxohexopyranose)-3,4,5,12-tetrahydroanthraceno-[2,3-c]pyran] | 5.01 |  |  |  |  | 
14 | 447 nM | 314 nM | 2660 nM | 146 nM | 1940 nM | CC(=O)[C@@H]1Cc2c(O)c3c(c(O)c2[C@@H](O[C@@H]2O[C@@H](C)[C@@H](O)[C@@H](NC(=O)C(F)(F)F)C2I)O1)C(=O)c1ccccc1C3=O (stereo partly shown) [BCH-2063] | 4.34 |  |  |  |  | 
15 | 92.7 nM | 105 nM | 534 nM | 501 nM | 586 nM | CC(=O)[C@@H]1Cc2c(O)c3c(c(O)c2[C@@H](O[C@@H]2O[C@@H](C)[C@@H](O)[C@@H](N)C2I)O1)C(=O)c1ccccc1C3=O (stereo partly drawn) [BCH-2066, (1'S,1R,3S)-Methyl-(5,12-dihydroxy-1-[2',3',6'-trideoxy-3'-amino-4'hydroxy-2'-iodo-L-lyxohexopyranose]-6,11-dioxo-3,4,6,11-tetrahydroanthraceno-[2,3C]-pyran-3-yl) ketone hydrochloride] | 6.32 |  |  |  |  | 
16 | 310 nM | 148 nM | 586 nM | 693 nM | 14100 nM | CC(=NO)[C@H]1Cc2c(O)c3c(c(O)c2[C@H](O[C@H]2C[C@H](N)[C@H](O)[C@H](C)O2)O1)C(=O)c1ccccc1C3=O [BCH-2074, (1'S, 1S,3R)-3-(Oximoethyl)-5,12-dihydroxy-1(2,3,6-trideoxy-3-amino-L-lyxohexolpyranose)-6,11-dioxo-3,4,6,11-tetrahydro-1H-anthra[2,3-C]pyran hydrochloride] | 45.48 |  |  |  |  | 
17 | 2400 nM | 2100 nM | 3000 nM | 3600 nM | 4700 nM | CCC1COC(OC2CC(NC(=O)C(F)(F)F)C(O)C(C)O2)C2=C1C(=O)c1c(cc3ccccc3c1O)C2=O [BCH-2080, (1'S,1S,4S)-5,12-Dioxo-4-ethyl-6-hydroxy-1-(2',3',6'-trideoxy-3'-trifluoroacetamido-L-lyxohexopyranose)-3,4,5,12-tetrahydroanthraceno-[2,3-c]-pyran] |  |  |  |  |  | 
18 | 860 nM | 360 nM | 640 nM | 1400 nM | 1700 nM | CCC1COC(OC2CC(N)C(O)C(C)O2)c2c(O)c3c(c(O)c21)C(=O)c1ccccc1C3=O [BCH-2086, (1'S,1R,4R)-5,12-Dihydroxy-4-ethyl-1-(2',3',6'-trideoxy-3'-amino-L-lyxohexopyranose)-1,2,3,4-tetrahydro-(2-oxygen)-naphthacene-6,11-dione-hydrochloride] |  |  |  |  |  | 
19 | 573 nM | 201 nM | 24 nM | 174 nM | 1090 nM | CCCCC[C@H]1Cc2c(O)c3c(c(O)c2[C@H](O[C@H]2C[C@H](N)[C@H](O)[C@H](C)O2)O1)C(=O)c1ccccc1C3=O [BCH-2088, (1'S,1S,3S)-5,12-mihydroxy-3-pentyl-1-(2',3',6'-trideoxy-3'-amino-L-lyxohexopyranose)-1,2,3,4-tetrahydro-(2-oxygen)-naphtacene-6,11-dione-hydrochloride] | 1.90 |  |  |  |  | 
20 | 332 nM | 104 nM | 194 nM | 201 nM | 420 nM | CCCCCC1Cc2c(O)c3c(c(O)c2C(O[C@H]2C[C@H](N)[C@H](O)[C@H](C)O2)O1)C(=O)c1ccccc1C3=O (stereo partly drawn) [BCH-2089, (1'S,1R,3R)-5,12-Dihydroxy-3-pentyl-1-(2',3',6'-trideoxy-3'-amino-L-lyxohexopyranose)-1,2,3,4-tetrahydro-(2-oxygen)-naphtacene-6,11-dione-hydrochloride] | 1.27 |  |  |  |  | 
